# According to publication PMC4522657, “Identification of a DYRK1A Inhibitor that Induces Degradation of the Target Kinase using Co-chaperone CDC37 fused with Luciferase nanoKAZ” (Scientific Reports, 2015):
# Assays:
# AKT1 = biological target: T1, AKT1 (Homo sapiens, UniProt P31749); test: Kinase panel, CaNDY 1 µM; type: biochemical; conditions: CaNDY 1 µM relative to DMSO
# T1 construct: purchased Carna Biosciences
# Source text: (§1) Detailed information on the assay conditions is available on the website of Carna Biosciences (http://www.carnabio.com/english/index.html; Kobe, Japan). In brief, full-length human recombinant kinases were expressed using a baculovirus expression system as amino-terminal GST-fusion proteins, and purified by glutathione-Sepharose chromatography. The GenBank accession numbers of DYRK1A, DYRK1B, DYRK2, and DYRK3 were NP_001387.2, NP_004705.1, NP_003574.1, and NP_003573.2. Kinase activities were evaluated by Off-chip Mobility Shift Assay after reaction of 1 μM of the substrate DYRKtide-F with ATP (25 μM for DYRK1A, 50 μM for DYRK1B, 10 μM for DYRK2, and 5 μM for DYRK3). For each compound, a DMSO solution was diluted in assay buffer to yield a final concentration of 1% DMSO. After incubation for one hour at room temperature, substrate phosphorylation was analyzed by electrophoretic separation of the substrate and products using a Caliper LC3000 platform (Caliper Life Sciences, Mountain View, CA, USA). The phosphorylated product (P)/(P + substrate) ratio was calculated at each concentration of each small molecule and the percent inhibition was expressed relative to a control assay in the absence of the small molecule. […] The IC50 of each compound was calculated by interpolation on a log-concentration-response curve fitted with a four-parameter logistic equation.
# (§2) All kinase assays were carried out at Carna Biosciences. The inhibitory map was made with Kinome Render[36].
# BMX = biological target: T2, BMX (Homo sapiens, UniProt P51813); test: Kinase panel, CaNDY 1 µM; type: biochemical; conditions: CaNDY 1 µM relative to DMSO
# T2 construct: purchased Carna Biosciences
# Source text: as §1, §2
# CHK2 = biological target: T3, CHK2 (Homo sapiens, UniProt O96017); test: Kinase panel, CaNDY 1 µM; type: biochemical; conditions: CaNDY 1 µM relative to DMSO
# T3 construct: purchased Carna Biosciences
# Source text: as §1, §2
# DLK_Cascade = biological target: T4, DLK_Cascade (Homo sapiens, UniProt Q12852); test: Kinase panel, CaNDY 1 µM; type: biochemical; conditions: CaNDY 1 µM relative to DMSO
# T4 construct: purchased Carna Biosciences
# Source text: as §1, §2
# EEF2K = biological target: T5, EEF2K (Homo sapiens, UniProt O00418); test: Kinase panel, CaNDY 1 µM; type: biochemical; conditions: CaNDY 1 µM relative to DMSO
# T5 construct: purchased Carna Biosciences
# Source text: as §1, §2
# EGFR(L858R) = biological target: T6, EGFR(L858R) (Homo sapiens, UniProt P00533, L858R); test: Kinase panel, CaNDY 1 µM; type: biochemical; conditions: CaNDY 1 µM relative to DMSO
# T6 construct: purchased Carna Biosciences
# Source text: as §1, §2
# EPHB4 = biological target: T7, EPHB4 (Homo sapiens, UniProt P54760); test: Kinase panel, CaNDY 1 µM; type: biochemical; conditions: CaNDY 1 µM relative to DMSO
# T7 construct: purchased Carna Biosciences
# Source text: as §1, §2
# IKKβ = biological target: T8, IKKβ (Homo sapiens, UniProt O14920); test: Kinase panel, CaNDY 1 µM; type: biochemical; conditions: CaNDY 1 µM relative to DMSO
# T8 construct: purchased Carna Biosciences
# Source text: as §1, §2
# MAP3K3_Cascade = biological target: T9, MAP3K3_Cascade (Homo sapiens, UniProt Q99759); test: Kinase panel, CaNDY 1 µM; type: biochemical; conditions: CaNDY 1 µM relative to DMSO
# T9 construct: purchased Carna Biosciences
# Source text: as §1, §2
# NuaK1 = biological target: T10, NuaK1 (Homo sapiens, UniProt O60285); test: Kinase panel, CaNDY 1 µM; type: biochemical; conditions: CaNDY 1 µM relative to DMSO
# T10 construct: purchased Carna Biosciences
# Source text: as §1, §2
# PRKX = biological target: T11, PRKX (Homo sapiens, UniProt P51817); test: Kinase panel, CaNDY 1 µM; type: biochemical; conditions: CaNDY 1 µM relative to DMSO
# T11 construct: purchased Carna Biosciences
# Source text: as §1, §2
# ROCK1 = biological target: T12, ROCK1 (Homo sapiens, UniProt Q13464); test: Kinase panel, CaNDY 1 µM; type: biochemical; conditions: CaNDY 1 µM relative to DMSO
# T12 construct: purchased Carna Biosciences
# Source text: as §1, §2
# TBK1 = biological target: T13, TBK1 (Homo sapiens, UniProt Q9UHD2); test: Kinase panel, CaNDY 1 µM; type: biochemical; conditions: CaNDY 1 µM relative to DMSO
# T13 construct: purchased Carna Biosciences
# Source text: as §1, §2
# TSSK2 = biological target: T14, TSSK2 (Homo sapiens, UniProt Q96PF2); test: Kinase panel, CaNDY 1 µM; type: biochemical; conditions: CaNDY 1 µM relative to DMSO
# T14 construct: purchased Carna Biosciences
# Source text: as §1, §2
# p38α = biological target: T15, p38α (Homo sapiens, UniProt Q16539); test: Kinase panel, CaNDY 1 µM; type: biochemical; conditions: CaNDY 1 µM relative to DMSO
# T15 construct: purchased Carna Biosciences
# Source text: as §1, §2
# EGFR(T790M/L858R) = biological target: T16, EGFR(T790M/L858R) (Homo sapiens, UniProt P00533, L858R/T790M); test: Kinase panel, CaNDY 1 µM; type: biochemical; conditions: CaNDY 1 µM relative to DMSO
# T16 construct: purchased Carna Biosciences
# FGFR3 = biological target: T17, FGFR3 (Homo sapiens, UniProt P22607); test: Kinase panel, CaNDY 1 µM; type: biochemical; conditions: CaNDY 1 µM relative to DMSO
# T17 construct: purchased Carna Biosciences
# FGFR4 = biological target: T18, FGFR4 (Homo sapiens, UniProt P22455); test: Kinase panel, CaNDY 1 µM; type: biochemical; conditions: CaNDY 1 µM relative to DMSO
# T18 construct: purchased Carna Biosciences
# HER2 = biological target: T19, HER2 (Homo sapiens, UniProt P04626); test: Kinase panel, CaNDY 1 µM; type: biochemical; conditions: CaNDY 1 µM relative to DMSO
# T19 construct: purchased Carna Biosciences
# ROS = biological target: T20, ROS (Homo sapiens, UniProt P08922); test: Kinase panel, CaNDY 1 µM; type: biochemical; conditions: CaNDY 1 µM relative to DMSO
# T20 construct: purchased Carna Biosciences
# CRIK = biological target: T21, CRIK (Homo sapiens, UniProt O14578); test: Kinase panel, CaNDY 1 µM; type: biochemical; conditions: CaNDY 1 µM relative to DMSO
# T21 construct: purchased Carna Biosciences
# MAP2K5_Cascade = biological target: T22, MAP2K5_Cascade (Homo sapiens, UniProt Q13163); test: Kinase panel, CaNDY 1 µM; type: biochemical; conditions: CaNDY 1 µM relative to DMSO
# T22 construct: purchased Carna Biosciences
# MAPKAPK3 = biological target: T23, MAPKAPK3 (Homo sapiens, UniProt Q16644); test: Kinase panel, CaNDY 1 µM; type: biochemical; conditions: CaNDY 1 µM relative to DMSO
# T23 construct: purchased Carna Biosciences
# PKCα = biological target: T24, PKCα (Homo sapiens, UniProt P17252); test: Kinase panel, CaNDY 1 µM; type: biochemical; conditions: CaNDY 1 µM relative to DMSO
# T24 construct: purchased Carna Biosciences
# PLK1 = biological target: T25, PLK1 (Homo sapiens, UniProt P53350); test: Kinase panel, CaNDY 1 µM; type: biochemical; conditions: CaNDY 1 µM relative to DMSO
# T25 construct: purchased Carna Biosciences
# RSK1 = biological target: T26, RSK1 (Homo sapiens, UniProt Q15418); test: Kinase panel, CaNDY 1 µM; type: biochemical; conditions: CaNDY 1 µM relative to DMSO
# T26 construct: purchased Carna Biosciences
# TAOK2 = biological target: T27, TAOK2 (Homo sapiens, UniProt Q9UL54); test: Kinase panel, CaNDY 1 µM; type: biochemical; conditions: CaNDY 1 µM relative to DMSO
# T27 construct: purchased Carna Biosciences
# [1] = biological target: T28, pre-accumulated 3xFLAG-DYRK1A (Homo sapiens, UniProt Q13627); test: Pre-accumulated DYRK1A after cycloheximide, Western blot in HEK293 cells; type: cell-based; conditions: cycloheximide 1 mg/mL pre-treatment, CaNDY 2 µM, 0-24 h
# T28 construct: F2A peptide linking to EGFP (2A skipping releases EGFP; a 2A remnant may stay on DYRK1A) (C); expressed in transfected cells; host or cells: HEK293
# Protocol: Western blot analysis was performed using the antibodies described above. In brief, total cell lysates were separated by SDS-PAGE (5–20% gels; ATTO, Tokyo, Japan) under reducing conditions and then transferred to a PVDF membrane (PALL, SP, Brazil). Antibody reactions were performed with Can Get Signal® Immunoreaction Enhancer Solution (Toyobo). Peroxidase activities on the membrane were visualized with ECL Western Blotting Detection Reagents (GE Healthcare) or ImmunoStar® LD (Wako Pure Chemical Industries, Osaka, Japan), and a ChemiDoc^TM MP Imaging System (Bio-Rad, Hercules, CA, USA).
# Targeting the DYRK1A/CDC37 complex
# HEK293 cells were transfected with an expression vector for 3xFLAG-DYRK1A. At 48 h after transfection, the cells were pre-treated with 1 mg/mL cycloheximide (CHX) to stop protein synthesis, and then treated with CaNDY (2 µM) for the indicated time (0-24 h). The total cell lysates were subjected to SDS-PAGE followed by Western blot analysis.
# (1 picture or pasted object on this page, not shown here)
# T10 sequence (O60285 whole entry): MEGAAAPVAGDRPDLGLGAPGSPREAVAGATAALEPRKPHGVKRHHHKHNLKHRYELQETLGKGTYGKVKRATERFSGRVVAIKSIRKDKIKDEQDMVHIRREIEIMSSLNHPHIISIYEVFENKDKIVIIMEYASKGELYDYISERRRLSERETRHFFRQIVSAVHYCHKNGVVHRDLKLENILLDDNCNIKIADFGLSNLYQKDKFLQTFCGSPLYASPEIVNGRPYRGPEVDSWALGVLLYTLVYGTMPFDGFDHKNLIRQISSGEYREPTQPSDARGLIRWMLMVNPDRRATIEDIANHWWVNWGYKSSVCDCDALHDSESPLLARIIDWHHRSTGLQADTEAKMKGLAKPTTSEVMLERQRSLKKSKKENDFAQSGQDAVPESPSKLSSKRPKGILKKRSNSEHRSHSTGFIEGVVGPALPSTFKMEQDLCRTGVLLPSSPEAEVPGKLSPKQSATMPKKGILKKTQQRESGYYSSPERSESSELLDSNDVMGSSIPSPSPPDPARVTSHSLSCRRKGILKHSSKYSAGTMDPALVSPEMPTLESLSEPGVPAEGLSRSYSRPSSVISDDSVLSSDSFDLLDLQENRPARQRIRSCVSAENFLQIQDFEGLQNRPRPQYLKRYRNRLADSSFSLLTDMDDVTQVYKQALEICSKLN
# T19 sequence (P04626 23-1255): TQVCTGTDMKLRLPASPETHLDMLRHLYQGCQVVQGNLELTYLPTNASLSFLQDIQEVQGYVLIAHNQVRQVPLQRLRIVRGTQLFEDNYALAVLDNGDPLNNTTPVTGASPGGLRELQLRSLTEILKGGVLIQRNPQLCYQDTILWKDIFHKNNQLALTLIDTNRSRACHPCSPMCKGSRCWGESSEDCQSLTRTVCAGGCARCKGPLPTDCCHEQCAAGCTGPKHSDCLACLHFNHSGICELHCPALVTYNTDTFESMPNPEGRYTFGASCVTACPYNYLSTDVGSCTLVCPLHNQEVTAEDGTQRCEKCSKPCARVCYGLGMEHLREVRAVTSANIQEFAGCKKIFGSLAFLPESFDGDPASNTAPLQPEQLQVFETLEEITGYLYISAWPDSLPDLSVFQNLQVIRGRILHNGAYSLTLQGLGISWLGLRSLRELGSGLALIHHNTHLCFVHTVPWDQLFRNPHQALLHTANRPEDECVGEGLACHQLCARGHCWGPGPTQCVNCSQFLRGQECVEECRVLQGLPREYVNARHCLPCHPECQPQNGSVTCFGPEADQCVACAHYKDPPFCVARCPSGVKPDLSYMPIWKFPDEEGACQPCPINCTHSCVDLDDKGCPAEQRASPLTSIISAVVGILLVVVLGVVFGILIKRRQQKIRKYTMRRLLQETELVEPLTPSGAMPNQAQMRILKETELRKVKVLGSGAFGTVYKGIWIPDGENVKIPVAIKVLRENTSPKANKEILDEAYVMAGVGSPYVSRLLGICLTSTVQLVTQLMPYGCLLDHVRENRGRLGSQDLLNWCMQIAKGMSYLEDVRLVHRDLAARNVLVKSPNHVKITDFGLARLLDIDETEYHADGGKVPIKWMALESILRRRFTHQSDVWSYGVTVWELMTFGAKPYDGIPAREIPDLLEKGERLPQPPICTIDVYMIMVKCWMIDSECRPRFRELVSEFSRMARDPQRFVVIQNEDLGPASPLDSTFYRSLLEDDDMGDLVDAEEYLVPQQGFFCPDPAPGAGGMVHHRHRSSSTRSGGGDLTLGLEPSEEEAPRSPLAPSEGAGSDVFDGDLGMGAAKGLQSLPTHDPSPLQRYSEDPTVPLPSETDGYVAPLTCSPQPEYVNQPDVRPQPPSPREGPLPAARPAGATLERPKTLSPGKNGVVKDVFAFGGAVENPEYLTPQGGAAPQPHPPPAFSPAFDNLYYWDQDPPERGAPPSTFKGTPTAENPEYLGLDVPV
# T15 sequence (Q16539 whole entry): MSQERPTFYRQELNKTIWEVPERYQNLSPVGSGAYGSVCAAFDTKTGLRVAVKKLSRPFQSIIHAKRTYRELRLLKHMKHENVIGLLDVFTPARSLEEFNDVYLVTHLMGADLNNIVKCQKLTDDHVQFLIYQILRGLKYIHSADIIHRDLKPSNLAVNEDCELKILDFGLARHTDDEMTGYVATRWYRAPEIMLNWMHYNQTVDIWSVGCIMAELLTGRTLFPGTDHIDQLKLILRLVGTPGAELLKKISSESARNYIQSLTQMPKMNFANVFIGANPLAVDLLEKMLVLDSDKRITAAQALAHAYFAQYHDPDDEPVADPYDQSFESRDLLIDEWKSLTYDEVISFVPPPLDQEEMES
# T14 sequence (Q96PF2 whole entry): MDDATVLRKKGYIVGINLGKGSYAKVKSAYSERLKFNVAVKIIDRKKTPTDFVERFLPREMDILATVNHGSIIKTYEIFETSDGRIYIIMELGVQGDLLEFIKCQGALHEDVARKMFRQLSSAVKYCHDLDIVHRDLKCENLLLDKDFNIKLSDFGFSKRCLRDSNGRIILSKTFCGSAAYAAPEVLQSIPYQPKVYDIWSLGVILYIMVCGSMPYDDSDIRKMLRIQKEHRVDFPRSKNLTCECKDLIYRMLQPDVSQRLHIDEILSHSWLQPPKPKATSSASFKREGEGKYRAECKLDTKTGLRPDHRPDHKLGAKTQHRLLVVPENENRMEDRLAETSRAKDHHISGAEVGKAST
# T23 sequence (Q16644 whole entry): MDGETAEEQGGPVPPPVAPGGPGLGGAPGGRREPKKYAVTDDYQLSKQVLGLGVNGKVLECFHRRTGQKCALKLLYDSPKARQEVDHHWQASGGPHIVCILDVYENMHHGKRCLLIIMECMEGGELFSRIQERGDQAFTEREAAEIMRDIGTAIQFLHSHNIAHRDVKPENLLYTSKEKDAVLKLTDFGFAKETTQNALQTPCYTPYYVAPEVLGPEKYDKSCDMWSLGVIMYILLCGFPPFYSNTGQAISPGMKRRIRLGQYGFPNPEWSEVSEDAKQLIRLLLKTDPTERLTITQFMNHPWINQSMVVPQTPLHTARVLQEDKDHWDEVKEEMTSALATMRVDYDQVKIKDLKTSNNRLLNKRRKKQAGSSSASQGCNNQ
# T17 sequence (P22607 23-806): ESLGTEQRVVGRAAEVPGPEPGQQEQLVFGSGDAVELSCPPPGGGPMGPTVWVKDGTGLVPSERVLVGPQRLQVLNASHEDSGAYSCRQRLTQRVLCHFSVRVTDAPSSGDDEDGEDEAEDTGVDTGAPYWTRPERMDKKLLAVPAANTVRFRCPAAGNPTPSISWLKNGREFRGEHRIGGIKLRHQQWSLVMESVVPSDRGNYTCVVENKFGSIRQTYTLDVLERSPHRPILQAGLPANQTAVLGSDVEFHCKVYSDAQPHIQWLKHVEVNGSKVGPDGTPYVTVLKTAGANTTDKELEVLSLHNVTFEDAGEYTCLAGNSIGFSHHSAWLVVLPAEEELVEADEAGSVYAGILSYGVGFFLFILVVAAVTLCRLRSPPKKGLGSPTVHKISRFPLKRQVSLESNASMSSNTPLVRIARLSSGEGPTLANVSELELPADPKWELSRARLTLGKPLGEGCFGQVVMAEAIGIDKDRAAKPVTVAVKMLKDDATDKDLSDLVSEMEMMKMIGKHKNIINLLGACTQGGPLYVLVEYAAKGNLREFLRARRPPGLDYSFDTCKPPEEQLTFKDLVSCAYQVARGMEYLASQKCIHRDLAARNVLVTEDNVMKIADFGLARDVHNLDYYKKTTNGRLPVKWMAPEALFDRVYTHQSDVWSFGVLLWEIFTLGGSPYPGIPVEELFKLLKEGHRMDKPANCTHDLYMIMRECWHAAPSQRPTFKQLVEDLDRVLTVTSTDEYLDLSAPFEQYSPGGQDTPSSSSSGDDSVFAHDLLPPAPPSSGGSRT
# T25 sequence (P53350 whole entry): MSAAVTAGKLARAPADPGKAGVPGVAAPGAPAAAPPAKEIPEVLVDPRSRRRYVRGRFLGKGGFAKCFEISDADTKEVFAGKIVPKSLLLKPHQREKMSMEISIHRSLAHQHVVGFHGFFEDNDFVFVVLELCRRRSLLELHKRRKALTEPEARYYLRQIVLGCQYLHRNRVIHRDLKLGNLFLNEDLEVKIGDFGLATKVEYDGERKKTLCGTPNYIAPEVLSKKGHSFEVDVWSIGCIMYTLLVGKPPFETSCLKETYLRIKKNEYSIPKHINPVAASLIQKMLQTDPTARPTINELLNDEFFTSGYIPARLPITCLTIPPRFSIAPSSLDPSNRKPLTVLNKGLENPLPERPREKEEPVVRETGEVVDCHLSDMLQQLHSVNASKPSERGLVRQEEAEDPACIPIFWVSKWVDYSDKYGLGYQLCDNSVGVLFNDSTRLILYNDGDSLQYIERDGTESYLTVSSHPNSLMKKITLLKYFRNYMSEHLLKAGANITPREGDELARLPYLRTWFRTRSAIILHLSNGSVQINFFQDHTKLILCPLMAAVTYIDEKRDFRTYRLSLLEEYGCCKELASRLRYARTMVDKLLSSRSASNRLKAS
# T3 sequence (O96017 whole entry): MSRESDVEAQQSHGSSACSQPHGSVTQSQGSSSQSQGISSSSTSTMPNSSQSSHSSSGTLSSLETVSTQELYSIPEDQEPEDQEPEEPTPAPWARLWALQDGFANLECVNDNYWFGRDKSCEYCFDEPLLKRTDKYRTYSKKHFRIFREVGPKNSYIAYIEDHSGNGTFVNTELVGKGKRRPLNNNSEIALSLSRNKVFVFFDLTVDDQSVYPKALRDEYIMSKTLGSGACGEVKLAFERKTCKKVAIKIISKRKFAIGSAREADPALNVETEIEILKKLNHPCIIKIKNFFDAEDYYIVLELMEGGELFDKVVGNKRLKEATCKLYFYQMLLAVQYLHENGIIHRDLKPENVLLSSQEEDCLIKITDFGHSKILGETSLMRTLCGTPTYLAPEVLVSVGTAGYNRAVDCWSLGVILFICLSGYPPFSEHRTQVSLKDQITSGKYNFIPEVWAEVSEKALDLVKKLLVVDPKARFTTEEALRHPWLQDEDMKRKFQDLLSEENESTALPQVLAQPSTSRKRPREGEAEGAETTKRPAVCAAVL
smiles,measurement,setting,value
"[H]/N=C1/NC(=O)C(=Cc2ccc3c(c2)CCO3)S1 [CaNDY, (Z)-5-[(2,3-dihydrobenzofuran-5-yl)methylene]-2-iminothiazolidin-4-one]",remaining activity at 1 µM,AKT1,104%
same,remaining activity at 1 µM,BMX,100%
same,remaining activity at 1 µM,CHK2,97.2%
same,%Activity,DLK_Cascade,102.6%
same,remaining activity at 1 µM,EEF2K,97.2%
same,%Activity,EGFR(L858R),105.7%
same,remaining activity at 1 µM,EPHB4,96.6%
same,remaining activity at 1 µM,IKKβ,104%
same,remaining activity at 1 µM,MAP3K3_Cascade,104%
same,%Activity,NuaK1,98.1%
same,remaining activity at 1 µM,PRKX,97.6%
same,remaining activity at 1 µM,ROCK1,92.5%
same,remaining activity at 1 µM,TBK1,100%
same,remaining activity at 1 µM,TSSK2,102%
same,%Activity,p38α,95.9%
same,%Activity,EGFR(T790M/L858R),106.6%
same,remaining activity at 1 µM,FGFR3,104%
same,remaining activity at 1 µM,FGFR4,107%
same,remaining activity at 1 µM,HER2,106%
same,remaining activity at 1 µM,ROS,103%
same,%Activity,CRIK,87.0%
same,remaining activity at 1 µM,MAP2K5_Cascade,101%
same,remaining activity at 1 µM,MAPKAPK3,103%
same,remaining activity at 1 µM,PKCα,82.4%
same,remaining activity at 1 µM,PLK1,99.2%
same,remaining activity at 1 µM,RSK1,91.2%
same,remaining activity at 1 µM,TAOK2,95.7%
same,pre-accumulated DYRK1A level,[1],did not decrease pre-accumulated DYRK1A
